Results reported in article PMC6222820, “Synthesis of New Triarylpyrazole Derivatives Possessing Terminal Sulfonamide Moiety and Their Inhibitory Effects on PGE2 and Nitric Oxide Productions in Lipopolysaccharide-Induced RAW 264.7 Macrophages” (Molecules : A Journal of Synthetic Chemistry and Natural …, 2018).
Where two headings read alike, the source gives them in different places.

Experiments:
[1] = MTT assay for cell viability / cytotoxicity; format: cell-based; settings: mouse, RAW 264.7 macrophages, means ± SD of three independent experiments
Procedure: In addition to NO inhibition, the cytotoxic activity of compounds 1a–i, 2a–i, 3a–h, and 4a–h in RAW 264.7 macrophages were measured using the 3-(4,5-dimethylthiazol-2-yl)-2,5-diphenyltetrazolium bromide (MTT) assay to check whether the effects on the production of NO was caused by nonspecific cytotoxicity.
(§1) Cell culture and sample treatment were performed as reported in the literature. The 3-(4,5-dimethylthiazol-2-yl)-2,5-diphenyltetrazolium bromide (MTT) assay for cell viability followed the procedure previously described in the literature. Nitrite determination was carried as described in the literature, and the PGE2 assay was carried as previously described.

[2] = tested on: LPS-induced RAW 264.7 macrophages; test: Nitric oxide (NO) production inhibition in LPS-induced RAW 264.7 macrophages (nitrite determination); format: cell-based; settings: for inhibition at 1 µM: RAW264.7, 1 µM; for inhibition at 5 µM: RAW264.7, 5 µM; for inhibition at 10 µM: RAW264.7, 10 µM
Procedure: The ability of a certain molecule to inhibit the production of inflammatory mediator(s) is one of successful approach to treatment both chronic and acute inflammation.
as §1

[3] = Mus musculus, LPS-induced RAW 264.7 macrophages
[4] = Mus musculus, RAW264.7, nitric oxide production, means ± SD of three independent experiments, read-out: NO (IC50)

Compound	IC50 [1] [µM]	melting point [°C]	inhibition at 1 µM [2, 3] [%]	inhibition at 5 µM [2, 3] [%]	inhibition at 10 µM [2, 3] [%]	IC50 [2, 4] [µM]	Nitric Oxide % Inhibition ([2]; 10 µM, LPS-induced RAW 264.7 macrophages) [%]	IC50 ([2]; Mus musculus, RAW264.7, read-out: NO (IC50)) [µM]	inhibition at 40 µM ([2]; Mus musculus, RAW264.7, read-out: Nitric Oxide % Inhibition) [%]
COc1cccc(-c2nn(-c3ccccc3)cc2-c2ccnc(NCCNS(=O)(=O)c3ccccc3)c2)c1 [Compound 1a, N-(2-((4-(3-(3-Methoxyphenyl)-1-phenyl-1H-pyrazol-4-yl)pyridin-2-yl)amino)ethyl)benzenesulfonamide]	245.8 ± 1.91	104 to 106	17.35 ± 0.09	35.4 ± 1.14	52.9 ± 3.12	9.17 ± 0.52	–	–	–
COc1cccc(-c2nn(-c3ccccc3)cc2-c2ccnc(NCCNS(=O)(=O)c3ccc(Cl)cc3)c2)c1 [Compound 1c, 4-Chloro-N-(2-((4-(3-(3-methoxyphenyl)-1-phenyl-1H-pyrazol-4-yl)pyridin-2-yl)amino)ethyl)benzenesulfonamide]	219.39 ± 0.14	132 to 134	13.27 ± 0.08	24.76 ± 0.17	49.9 ± 1.25	10.1 ± 0.63	–	–	–
COc1ccc(S(=O)(=O)NCCNc2cc(-c3cn(-c4ccccc4)nc3-c3cccc(OC)c3)ccn2)cc1 [Compound 1e, 4-Methoxy-N-(2-((4-(3-(3-methoxyphenyl)-1-phenyl-1H-pyrazol-4-yl)pyridin-2-yl)amino)ethyl)benzenesulfonamide]	285 ± 4.18	144 to 146	13.52 ± 0.11	16.1 ± 0.09	41.5 ± 0.99	13.4 ± 0.72	–	–	–
COc1cccc(-c2nn(-c3ccccc3)cc2-c2ccnc(NCCNS(=O)(=O)c3cccc(F)c3)c2)c1 [Compound 1h, 3-Fluoro-N-(2-((4-(3-(3-methoxyphenyl)-1-phenyl-1H-pyrazol-4-yl)pyridin-2-yl)amino)ethyl)benzenesulfonamide]	244.2 ± 2.23	118 to 120	11.12 ± 0.02	26.2 ± 0.99	41.2 ± 2.15	12.6 ± 0.29	–	–	–
COc1cccc(-c2nn(-c3ccccc3)cc2-c2ccnc(NCCNS(=O)(=O)c3cccc4ccccc34)c2)c1 [Compound 1i, N-(2-((4-(3-(3-Methoxyphenyl)-1-phenyl-1H-pyrazol-4-yl)pyridin-2-yl)amino)ethyl)naphthalene-1-sulfonamide]	–	178 to 180	–	–	–	–	–	–	–
COc1cccc(-c2nn(-c3ccccc3)cc2-c2ccnc(NCCCNS(=O)(=O)c3ccc(Br)cc3)c2)c1 [Compound 2b, 4-Bromo-N-(3-((4-(3-(3-methoxyphenyl)-1-phenyl-1H-pyrazol-4-yl)pyridin-2-yl)amino)propyl)benzenesulfonamide]	384.7 ± 1.29	117 to 119	0.01 ± 0.03	28.1 ± 0.66	52.4 ± 1.62	9.5 ± 0.34	–	–	–
COc1cccc(-c2nn(-c3ccccc3)cc2-c2ccnc(NCCCNS(=O)(=O)c3ccc(F)cc3)c2)c1 [Compound 2d, 4-Fluoro-N-(3-((4-(3-(3-methoxyphenyl)-1-phenyl-1H-pyrazol-4-yl)pyridin-2-yl)amino)propyl)benzenesulfonamide]	260.3 ± 2.24	92 to 94	7.81 ± 0.03	23 ± 0.89	55 ± 4.01	12.4 ± 0.4	–	–	–
COc1ccc(S(=O)(=O)NCCCNc2cc(-c3cn(-c4ccccc4)nc3-c3cccc(OC)c3)ccn2)cc1 [Compound 2e, 4-Methoxy-N-(3-((4-(3-(3-methoxyphenyl)-1-phenyl-1H-pyrazol-4-yl)pyridin-2-yl)amino)propyl)benzenesulfonamide]	> 400	124 to 126	2.02 ± 0.01	23.9 ± 1.12	50.2 ± 1.88	9.96 ± 0.18	–	–	–
COc1cccc(-c2nn(-c3ccccc3)cc2-c2ccnc(NCCCNS(=O)(=O)c3ccc(C(F)(F)F)cc3)c2)c1 [Compound 2g, N-(3-((4-(3-(3-Methoxyphenyl)-1-phenyl-1H-pyrazol-4-yl)pyridin-2-yl)amino)propyl)-4-(trifluoromethyl)benzenesulfonamide]	252.6 ± 1.87	–	2.91 ± 0.02	26.3 ± 1.01	56 ± 0.89	10.5 ± 0.44	–	–	–
COc1cccc(-c2nn(-c3ccccc3)cc2-c2ccnc(NCCCNS(=O)(=O)c3cccc(F)c3)c2)c1 [Compound 2h, 3-Fluoro-N-(3-((4-(3-(3-methoxyphenyl)-1-phenyl-1H-pyrazol-4-yl)pyridin-2-yl)amino)propyl)benzenesulfonamide]	246 ± 2.71	–	4.87 ± 0.05	24.1 ± 0.91	41.5 ± 1.12	9.19 ± 0.25	–	–	–
COc1cccc(-c2nn(-c3ccccc3)cc2-c2ccnc(NCCCNS(=O)(=O)c3cccc4ccccc34)c2)c1 [Compound 2i, N-(3-((4-(3-(3-Methoxyphenyl)-1-phenyl-1H-pyrazol-4-yl)pyridin-2-yl)amino)propyl)naphthalene-1-sulfonamide]	–	134 to 136	–	–	–	–	–	–	–
O=S(=O)(NCCNc1cc(-c2cn(-c3ccccc3)nc2-c2cccc(O)c2)ccn1)c1ccc(C(F)(F)F)cc1 [Compound 3f, N-(2-((4-(3-(3-Hydroxyphenyl)-1-phenyl-1H-pyrazol-4-yl)pyridin-2-yl)amino)ethyl)-4-(trifluoromethyl)benzenesulfonamide]	–	–	6.08 ± 0.07	15.2 ± 0.91	36.5 ± 0.59	22.2 ± 0.31	–	–	–
O=S(=O)(NCCNc1cc(-c2cn(-c3ccccc3)nc2-c2cccc(O)c2)ccn1)c1cccc2ccccc12 [Compound 3h, N-(2-((4-(3-(3-Hydroxyphenyl)-1-phenyl-1H-pyrazol-4-yl)pyridin-2-yl)amino)ethyl)naphthalene-1-sulfonamide]	–	146 to 148	–	–	–	–	–	–	–
O=S(=O)(NCCCNc1cc(-c2cn(-c3ccccc3)nc2-c2cccc(O)c2)ccn1)c1ccc(Br)cc1 [Compound 4b, 4-Bromo-N-(3-((4-(3-(3-hydroxyphenyl)-1-phenyl-1H-pyrazol-4-yl)pyridin-2-yl)amino)propyl)benzenesulfonamide]	19.5 ± 0.49	–	8.19 ± 0.06	22.2 ± 0.72	63.9	8.34 ± 0.11	63.82 ± 2.14	–	–
O=S(=O)(NCCCNc1cc(-c2cn(-c3ccccc3)nc2-c2cccc(O)c2)ccn1)c1ccc(F)cc1 [Compound 4d, 4-Fluoro-N-(3-((4-(3-(3-hydroxyphenyl)-1-phenyl-1H-pyrazol-4-yl)pyridin-2-yl)amino)propyl)benzenesulfonamide]	12.6 ± 0.22	–	9.02 ± 0.03	20.8 ± 0.36	48.5 ± 1.79	11.3 ± 0.16	–	–	–
O=S(=O)(NCCCNc1cc(-c2cn(-c3ccccc3)nc2-c2cccc(O)c2)ccn1)c1ccc(C(F)(F)F)cc1 [Compound 4f, N-(3-((4-(3-(3-Hydroxyphenyl)-1-phenyl-1H-pyrazol-4-yl)pyridin-2-yl)amino)propyl)-4-(trifluoromethyl)benzenesulfonamide]	17.7 ± 0.61	–	4.87 ± 0.14	18.9 ± 1.02	53.8 ± 1.87	9.45 ± 0.15	–	–	–
CC(=N)NCCCC[C@H](N)C(=O)O [L-NIL, N^6-(1-Iminoethyl)-L-lysine, reference compound]	–	–	–	–	–	–	–	29.32 ± 0.15	77.9 ± 4.25
